Measured values: US12358892B2, “Metalloenzyme inhibitors for treating cancers, Alzheimer's disease, hemochromatosis, and other disorders” (Miralogx LLC, priority 2020, dated 2025)
“Also recorded” adds a separate entry of the source.

Legend:
T cells = assay: BioMAP proliferation readout, T cells; assay type: cell-based, human; settings: 670 μM, 220 μM; concentrations not associated with cytotoxicity
Description: (§1) The X-axis lists the quantitative protein-based biomarker readouts measured in each system. The Y-axis represents a log-transformed ratio of the biomarker readouts for the drug-treated sample (n=1) over vehicle controls (n≥6). The grey region around the Y-axis represents the 95% significance envelope generated from historical vehicle controls. Biomarker activities are annotated when two or more consecutive concentrations change in the same direction relative to vehicle controls, are outside of the significance envelope, and have at least one concentration with an effect size >20% (|log 10 ratio|>0.1). Biomarker key activities are described as modulated if these activities increase in some systems, but decrease in others. […] As summarized in Table 2 below, the compound was active with 35 annotated readouts. […]
(§2) Human primary cells in BioMAP® systems are used at early passage (passage 4 or earlier) to minimize adaptation to cell culture conditions and preserve physiological signaling responses. […] Test agents prepared in either DMSO (small molecules; final concentration ≤0.1%) or PBS (biologics) are added at the indicated concentrations 1-hr before stimulation, and remain in culture for 24-hrs or as otherwise indicated (48-hrs, MyoF system; 72-hrs, BT system (soluble readouts); 168-hrs, BT system (secreted IgG)). […]

B cells = assay: BioMAP proliferation readout, B cells; assay type: cell-based, human; settings: 670 μM, 220 μM, 74 μM; concentrations not associated with cytotoxicity
Description: as §1, §2

[1] = system: human primary endothelial cells; assay: BioMAP proliferation readout, endothelial cells; assay type: cell-based; settings: 670 μM, 220 μM, 74 μM; concentrations not associated with cytotoxicity
Description: as §1, §2

[2] = system: 12 human primary cell-based systems; assay: BioMAP Diversity PLUS panel, protein biomarker readouts and cytotoxicity
Description: This example describes testing the compound prepared in Example 1 in the BioMAP Diversity PLUS (Eurofins Discovery, Burlingame, California) panel of 12 human primary cell-based systems designed to model different aspects of the human body in an in vitro format. The 12 systems in the Diversity PLUS panel allow test agent characterization in an unbiased way across a broad set of systems modeling various human disease states. BioMAP systems are constructed with one or more primary cell types from healthy human donors, with stimuli (such as cytokines or growth factors) added to capture relevant signaling networks that naturally occur in human tissue or pathological conditions. Vascular biology is modeled in both a Th1 (3C system) and a Th2 (4H system) inflammatory environment, as well as in a Th1 inflammatory state specific to arterial smooth muscle cells (CASM3C system). Additional systems recapitulate aspects of the systemic immune response including monocyte-driven Th1 inflammation (LPS system) or T cell stimulation (SAg system), chronic Th1 inflammation driven by macrophage activation (lMphg system) and the T cell-dependent activation of B cells that occurs in germinal centers (BT system). The BE3C system (Th1) and the BF4T system (Th2) represent airway inflammation of the lung, while the MyoF system models myofibroblast-lung tissue remodeling. Lastly, skin biology is addressed in the KF3CT system modeling Th1 cutaneous inflammation and the HDF3CGF system modeling wound healing.
The X-axis lists the quantitative protein-based biomarker readouts measured in each system. The Y-axis represents a log-transformed ratio of the biomarker readouts for the drug-treated sample (n=1) over vehicle controls (n≥6). The grey region around the Y-axis represents the 95% significance envelope generated from historical vehicle controls. Biomarker activities are annotated when two or more consecutive concentrations change in the same direction relative to vehicle controls, are outside of the significance envelope, and have at least one concentration with an effect size >20% (|log 10 ratio|>0.1). Biomarker key activities are described as modulated if these activities increase in some systems, but decrease in others. Cytotoxicity is indicated on the profile plot by a thin black arrow above the X-axis, and antiproliferative effects are indicated by a thick grey arrow. Cytotoxicity and antiproliferative arrows only require one concentration to meet the indicated threshold for profile annotation. As summarized in Table 2 below, the compound was active with 35 annotated readouts. Specifically, the compound impacted inflammation-related activities (decreased Eotaxin 3, VCAM-1, MCP-1, SAA, sTNFα, MIP-1α; increased IL-1α, IL-6; modulated IL-8), immunomodulatory activities (decreased CD40, sIL-1β, sIgG, M-CSF, sIL-17A, sIL-6, sIL-17F, sIL-2), tissue remodeling activities (decreased PAI-1, uPAR, αSMA, Keratin 8/18; increased collagen I, MMP-1), and hemostasis-related activities (increased TF).
BioMAP® panels consist of human primary cell-based systems designed to model different aspects of the human body in an in vitro format. BioMAP® systems are constructed with one or more primary cell types from healthy human donors, with stimuli (such as cytokines or growth factors) added to capture relevant signaling networks that naturally occur in human tissue or pathological conditions. Vascular biology is modeled in both a Th1 (3C system) and a Th2 (4H system) inflammatory environment, as well as in a Th1 inflammatory state specific to arterial smooth muscle cells (CASM3C system). Additional systems recapitulate aspects of the systemic immune response including monocyte-driven Th1 inflammation (LPS system) or T cell stimulation (SAg system), chronic Th1 inflammation driven by macrophage activation (Mphg system) and the T cell-dependent activation of B cells that occurs in germinal centers (BT system). […]

[3] = system: coronary artery smooth muscle cells; assay: BioMAP proliferation readout, coronary artery smooth muscle cells; assay type: cell-based, human; settings: 670 μM, 220 μM, 74 μM; concentrations not associated with cytotoxicity
Description: as §1, §2

fibroblasts = assay: BioMAP proliferation readout, fibroblasts; assay type: cell-based, human; settings: 670 μM; concentrations not associated with cytotoxicity
Description: as §1, §2

[4] = Inflammation-related activities
[5] = lower three concentrations tested, immunomodulatory
[6] = lower three concentrations tested, inflammation-related
[7] = lower three concentrations tested, tissue remodeling

Structure (SMILES): c1ncc(C2=NCCC2)cc1C1=NCCC1 [Example 1]
- antiproliferative effect on T cells (T cells): antiproliferative
- antiproliferative effect on B cells (B cells): antiproliferative
- antiproliferative effect on human primary endothelial cells [1]: antiproliferative
- annotated readouts ([2]; Diversity PLUS Panel profile): 35
- Decreased Activity: M-CSF ([2]; Immunomodulatory activities): decreased; also recorded: M-CSF
- Decreased Activity: sIL-6 ([2]; Immunomodulatory activities): decreased; also recorded: inhibited; also recorded: sIL-6
- Decreased Activity: sIL-10 (Table 2) / sIL-1β ([2]; Immunomodulatory activities): decreased
- Decreased Activity: sIL-17F ([2]; Immunomodulatory activities): decreased; also recorded: SIL-17F
- Decreased Activity: sIgG ([2]; Immunomodulatory activities): decreased and sigG
- Decreased activity: CD40 ([2]; Immunomodulatory activities): decreased and CD40
- Decreased activity: sIL-2 ([2]; Immunomodulatory activities): decreased
- Decreased activity: sIL-17A ([2]; Immunomodulatory activities): decreased; also recorded: SIL-17A
- Decreased Activity: Eotaxin 3 [2, 4]: decreased and Eot3
- Decreased Activity: MIP-1α [2, 4]: decreased
- Decreased Activity: SAA [2, 4]: decreased and SAA
- Decreased Activity: sTNFα [2, 4]: decreased; also recorded: inhibited; also recorded: sTNFα
- Decreased activity: MCP-1 [2, 4]: decreased; also recorded: MCP-1
- Decreased activity: VCAM-1 [2, 4]: decreased; also recorded: VCAM-1
- Increased Activity: IL-1α [2, 4]: increased and IL1a
- Increased Activity: IL-6 [2, 4]: increased and IL6
- Modulated Activity: IL-8 [2, 4]: modulated and IL8
- Decreased Activity: Keratin 8/18 ([2]; Tissue remodeling activities): decreased; also recorded: Ker8-18
- Decreased Activity: PAI-1 ([2]; Tissue remodeling activities): decreased; also recorded: PAI-1
- Decreased Activity: uPAR ([2]; Tissue remodeling activities): decreased and uPAR
- Decreased Activity: αSMA ([2]; Tissue remodeling activities): decreased and aSMA
- Increased Activity: MMP-1 ([2]; Tissue remodeling activities): increased; also recorded: MMP1,
- Increased Activity: collagen I ([2]; Tissue remodeling activities): increased; also recorded: Col-1
- annotated readouts ([2]; lower three concentrations tested): 23
- TF ([2]; lower three concentrations tested, hemostasis-related): increased
- sIL-1β [2, 5]: decreased
- sIL-2 [2, 5]: decreased
- sIL-6 [2, 5]: decreased
- sIL-17A [2, 5]: decreased
- sIL-17F [2, 5]: decreased
- sIgG [2, 5]: decreased
- Eotaxin 3 [2, 6]: decreased
- IL-1α [2, 6]: increased
- IL-6 [2, 6]: increased
- IL-8 [2, 6]: increased
- MCP-1 [2, 6]: decreased
- SAA [2, 6]: decreased
- VCAM-1 [2, 6]: decreased
- sTNFα [2, 6]: decreased
- MMP-1 [2, 7]: increased
- PAI-1 [2, 7]: decreased
- collagen I [2, 7]: increased
- antiproliferative effect on coronary artery smooth muscle cells [3]: antiproliferative
- antiproliferative effect on fibroblasts (fibroblasts): antiproliferative
